According to patent US20100035755A1, “METHOD OF CONTROLLING WEEDS IN A TURF GRASS BY USING SULFONYLUREA COMPOUNDS” (Moghu Research Center Ltd., priority 2008, published 2010):

Key:
Perennial rye grass = assay: Turf grass selectivity, greenhouse pot test; type: in vivo
Excerpt: (§1) Turf mats of Zoysia grass, bentgrass, Kentucky bluegrass, or perennial rye grass known as cool season turfgrass or western grass were purchased and cut into a piece having 10 cm×20 cm size. Then, each piece was transplanted in a rectangular plastic pot (surface area of 300 cm^2) in which sandy loam and mixed top soil (Boo-Nong Top Soil No. 3, for horticultural use) are filled in 1:1 ratio. After the transplantation, the grasses were cut once a week to maintain the blade height at 0.5-1.0 cm and cultivated for one month in a green house of which temperature was kept at 25˜30° C. for daytime and 15˜25° C. for nighttime, respectively. Then, the ‘test chemical’ of the above Examples 1 and 2 or ‘control chemical’ was applied thereto in an amount of 400, 200, 100, 50, 25, 12, 6, 3 g ai/ha. As a “control chemical”, pyrazolsulfuron ethyl wettable agent (manufactured by Dongbu Fine Chemicals; herein after, referred to as ‘control chemical No. 1’) and flazasulfuron (manufactured by Dongbu HiTek; herein after, referred to as ‘control chemical No. 2’), both sulfonylurea herbicides for a turf grass, were used. Application was carried out by using a track sprayer (R&D Sprayer, USA) equipped with Teejet 8002 nozzle (Spraying Systems Co., USA), and the application amount was adjusted to 2,000 L/ha, which is a typical application amount for a golf course in Korea. Application solution was prepared by diluting the “test chemical” or the “control chemical” with tap water. […] The test was repeated three times in a random arrangement and the results are given in average value of each test (see Table 2 below).

Kummerowia striata = assay: Weed spectrum, greenhouse pot test; type: in vivo; conditions: two weeks after application
Excerpt: (§2) To a rectangular plastic pot (surface area of 300 cm^2) in which sandy loam and mixed top soil (Boo-Nong Top Soil No. 3, for horticultural use) are filled in 1:1 ratio, eight different kinds of weed seeds including Poa annua and Digitaria sanguinalis as poaceae weed, Cyperus amuricus as cyperaceae weeds and Trifolium repens, Kummerowia striata, fleabane, Veronica officinalis and Portulaca oleracea as broadleaf weeds were sewn (50 to 100 seeds per each weed). These weeds are representative examples of the weeds which typically thrive in a turf grass field.
(§3) The pot was kept in a greenhouse which was maintained at 25˜30° C. for daytime and 15˜25° C. for nighttime, respectively, and irrigation was carried out regularly. Fourteen days after seeding, when the turf grass and the weeds reached approximately at three-leaf stage, the weed seeds were again sewn in separate two pots or “Test chemical” and “Control chemical” were applied in the same manner as the method described above. In this regard, when plants were cultivated for two weeks and then the chemical application was carried out, it is designated as “post-emergence” treatment. On the other than, when the seeding was carried right before the chemical application, it is designated as “pre-emergence” treatment. Preparation of a chemical solution, application method, etc. are the same as above described for evaluation of turf grass selectivity. Two weeks after the chemical application, efficacy of the chemicals for each type of the weeds was evaluated (visual evaluation) based on 0 to 100 scale (i.e., 0 indicates no efficacy and 100 indicates complete weed control).

Cyperus amuricus = assay: Weed spectrum, greenhouse pot test; type: in vivo; conditions: two weeks after application
Excerpt: as §2, §3

Digitaria sanguinalis = assay: Weed spectrum, greenhouse pot test; type: in vivo; conditions: two weeks after application
Excerpt: as §2, §3

Portulaca oleracea = assay: Weed spectrum, greenhouse pot test; type: in vivo; conditions: two weeks after application
Excerpt: as §2, §3

Poa annua = assay: Weed spectrum, greenhouse pot test; type: in vivo; conditions: two weeks after application
Excerpt: as §2, §3

Veronica officinalis = assay: Weed spectrum, greenhouse pot test; type: in vivo; conditions: two weeks after application
Excerpt: as §2, §3

Trifolium repens = assay: Weed spectrum, greenhouse pot test; type: in vivo; conditions: two weeks after application
Excerpt: as §2, §3

Kentucky bluegrass = assay: Turf grass selectivity, greenhouse pot test; type: in vivo, Poa pratensis
Excerpt: as §1

Compound: Cc1cc(C)nc(NC(=O)NS(=O)(=O)c2ccccc2C(O)C(C)F)n1 (stereo not shown) [Example 1]
- phytotoxicity (visual assessment 0-10) (Perennial rye grass; 3 g ai/ha, 2 weeks): 0
- phytotoxicity (visual assessment 0-10) (Perennial rye grass; 3 g ai/ha, 4 weeks): 0
- phytotoxicity (visual assessment 0-10) (Perennial rye grass; 6 g ai/ha, 2 weeks): 0
- phytotoxicity (visual assessment 0-10) (Perennial rye grass; 6 g ai/ha, 4 weeks): 0
- phytotoxicity (visual assessment 0-10) (Perennial rye grass; 12 g ai/ha, 2 weeks): 0
- phytotoxicity (visual assessment 0-10) (Perennial rye grass; 12 g ai/ha, 4 weeks): 0
- phytotoxicity (visual assessment 0-10) (Perennial rye grass; 25 g ai/ha, 2 weeks): 0
- phytotoxicity (visual assessment 0-10) (Perennial rye grass; 25 g ai/ha, 4 weeks): 0
- phytotoxicity (visual assessment 0-10) (Perennial rye grass; 50 g ai/ha, 2 weeks): 0
- phytotoxicity (visual assessment 0-10) (Perennial rye grass; 50 g ai/ha, 4 weeks): 0
- phytotoxicity (visual assessment 0-10) (Perennial rye grass; 100 g ai/ha, 2 weeks): 0
- phytotoxicity (visual assessment 0-10) (Perennial rye grass; 100 g ai/ha, 4 weeks): 0
- phytotoxicity (visual assessment 0-10) (Perennial rye grass; 200 g ai/ha, 2 weeks): 0
- phytotoxicity (visual assessment 0-10) (Perennial rye grass; 200 g ai/ha, 4 weeks): 0
- phytotoxicity (visual assessment 0-10) (Perennial rye grass; 400 g ai/ha, 2 weeks): 1
- phytotoxicity (visual assessment 0-10) (Perennial rye grass; 400 g ai/ha, 4 weeks): 0
- efficacy (0-100 scale) (Kummerowia striata; Post-emergence, 12 g ai/ha): 70
- efficacy (0-100 scale) (Kummerowia striata; Post-emergence, 25 g ai/ha): 70
- efficacy (0-100 scale) (Kummerowia striata; Post-emergence, 50 g ai/ha): 100
- efficacy (0-100 scale) (Kummerowia striata; Post-emergence, 100 g ai/ha): 100
- efficacy (0-100 scale) (Kummerowia striata; Pre-emergence, 12 g ai/ha): 70
- efficacy (0-100 scale) (Kummerowia striata; Pre-emergence, 25 g ai/ha): 90
- efficacy (0-100 scale) (Kummerowia striata; Pre-emergence, 50 g ai/ha): 90
- efficacy (0-100 scale) (Kummerowia striata; Pre-emergence, 100 g ai/ha): 100
- efficacy (0-100 scale) (Cyperus amuricus; Post-emergence, 12 g ai/ha): 90
- efficacy (0-100 scale) (Cyperus amuricus; Post-emergence, 25 g ai/ha): 95
- efficacy (0-100 scale) (Cyperus amuricus; Post-emergence, 50 g ai/ha): 100
- efficacy (0-100 scale) (Cyperus amuricus; Post-emergence, 100 g ai/ha): 100
- efficacy (0-100 scale) (Cyperus amuricus; Pre-emergence, 12 g ai/ha): 90
- efficacy (0-100 scale) (Cyperus amuricus; Pre-emergence, 25 g ai/ha): 95
- efficacy (0-100 scale) (Cyperus amuricus; Pre-emergence, 50 g ai/ha): 100
- efficacy (0-100 scale) (Cyperus amuricus; Pre-emergence, 100 g ai/ha): 100
- efficacy (0-100 scale) (Digitaria sanguinalis; Post-emergence, 12 g ai/ha): 60
- efficacy (0-100 scale) (Digitaria sanguinalis; Post-emergence, 25 g ai/ha): 70
- efficacy (0-100 scale) (Digitaria sanguinalis; Post-emergence, 50 g ai/ha): 90
- efficacy (0-100 scale) (Digitaria sanguinalis; Post-emergence, 100 g ai/ha): 100
- efficacy (0-100 scale) (Digitaria sanguinalis; Pre-emergence, 12 g ai/ha): 60
- efficacy (0-100 scale) (Digitaria sanguinalis; Pre-emergence, 25 g ai/ha): 85
- efficacy (0-100 scale) (Digitaria sanguinalis; Pre-emergence, 50 g ai/ha): 100
- efficacy (0-100 scale) (Digitaria sanguinalis; Pre-emergence, 100 g ai/ha): 100
- efficacy (0-100 scale) (Portulaca oleracea; Post-emergence, 12 g ai/ha): 70
- efficacy (0-100 scale) (Portulaca oleracea; Post-emergence, 25 g ai/ha): 90
- efficacy (0-100 scale) (Portulaca oleracea; Post-emergence, 50 g ai/ha): 100
- efficacy (0-100 scale) (Portulaca oleracea; Post-emergence, 100 g ai/ha): 100
- efficacy (0-100 scale) (Portulaca oleracea; Pre-emergence, 12 g ai/ha): 90
- efficacy (0-100 scale) (Portulaca oleracea; Pre-emergence, 25 g ai/ha): 90
- efficacy (0-100 scale) (Portulaca oleracea; Pre-emergence, 50 g ai/ha): 100
- efficacy (0-100 scale) (Portulaca oleracea; Pre-emergence, 100 g ai/ha): 100
- efficacy (0-100 scale) (Poa annua; Post-emergence, 12 g ai/ha): 10
- efficacy (0-100 scale) (Poa annua; Post-emergence, 25 g ai/ha): 30
- efficacy (0-100 scale) (Poa annua; Post-emergence, 50 g ai/ha): 50
- efficacy (0-100 scale) (Poa annua; Post-emergence, 100 g ai/ha): 70
- efficacy (0-100 scale) (Poa annua; Pre-emergence, 12 g ai/ha): 50
- efficacy (0-100 scale) (Poa annua; Pre-emergence, 25 g ai/ha): 60
- efficacy (0-100 scale) (Poa annua; Pre-emergence, 50 g ai/ha): 70
- efficacy (0-100 scale) (Poa annua; Pre-emergence, 100 g ai/ha): 80
- efficacy (0-100 scale) (Veronica officinalis; Post-emergence, 12 g ai/ha): 20
- efficacy (0-100 scale) (Veronica officinalis; Post-emergence, 25 g ai/ha): 20
- efficacy (0-100 scale) (Veronica officinalis; Post-emergence, 50 g ai/ha): 20
- efficacy (0-100 scale) (Veronica officinalis; Post-emergence, 100 g ai/ha): 20
- efficacy (0-100 scale) (Veronica officinalis; Pre-emergence, 12 g ai/ha): 30
- efficacy (0-100 scale) (Veronica officinalis; Pre-emergence, 25 g ai/ha): 30
- efficacy (0-100 scale) (Veronica officinalis; Pre-emergence, 50 g ai/ha): 40
- efficacy (0-100 scale) (Veronica officinalis; Pre-emergence, 100 g ai/ha): 50
- efficacy (0-100 scale) (Trifolium repens; Post-emergence, 12 g ai/ha): 40
- efficacy (0-100 scale) (Trifolium repens; Post-emergence, 25 g ai/ha): 50
- efficacy (0-100 scale) (Trifolium repens; Post-emergence, 50 g ai/ha): 60
- efficacy (0-100 scale) (Trifolium repens; Post-emergence, 100 g ai/ha): 60
- efficacy (0-100 scale) (Trifolium repens; Pre-emergence, 12 g ai/ha): 30
- efficacy (0-100 scale) (Trifolium repens; Pre-emergence, 25 g ai/ha): 50
- efficacy (0-100 scale) (Trifolium repens; Pre-emergence, 50 g ai/ha): 70
- efficacy (0-100 scale) (Trifolium repens; Pre-emergence, 100 g ai/ha): 70
- phytotoxicity (visual assessment 0-10) (Kentucky bluegrass; 3 g ai/ha, 2 weeks): 0
- phytotoxicity (visual assessment 0-10) (Kentucky bluegrass; 3 g ai/ha, 4 weeks): 0
- phytotoxicity (visual assessment 0-10) (Kentucky bluegrass; 6 g ai/ha, 2 weeks): 0
- phytotoxicity (visual assessment 0-10) (Kentucky bluegrass; 6 g ai/ha, 4 weeks): 0
- phytotoxicity (visual assessment 0-10) (Kentucky bluegrass; 12 g ai/ha, 2 weeks): 0
- phytotoxicity (visual assessment 0-10) (Kentucky bluegrass; 12 g ai/ha, 4 weeks): 0
- phytotoxicity (visual assessment 0-10) (Kentucky bluegrass; 25 g ai/ha, 2 weeks): 0
- phytotoxicity (visual assessment 0-10) (Kentucky bluegrass; 25 g ai/ha, 4 weeks): 0
- phytotoxicity (visual assessment 0-10) (Kentucky bluegrass; 50 g ai/ha, 2 weeks): 0
- phytotoxicity (visual assessment 0-10) (Kentucky bluegrass; 50 g ai/ha, 4 weeks): 0
- phytotoxicity (visual assessment 0-10) (Kentucky bluegrass; 100 g ai/ha, 2 weeks): 0
- phytotoxicity (visual assessment 0-10) (Kentucky bluegrass; 100 g ai/ha, 4 weeks): 0
- phytotoxicity (visual assessment 0-10) (Kentucky bluegrass; 200 g ai/ha, 2 weeks): 1
- phytotoxicity (visual assessment 0-10) (Kentucky bluegrass; 200 g ai/ha, 4 weeks): 0
- phytotoxicity (visual assessment 0-10) (Kentucky bluegrass; 400 g ai/ha, 2 weeks): 2
- phytotoxicity (visual assessment 0-10) (Kentucky bluegrass; 400 g ai/ha, 4 weeks): 1
